In article PMC12274739, “Differential substrate degradation by super-degron: EGFP in wild-type mouse cells, PD-1 requires CRBN humanization” (iScience, 2025):
Read-outs that look alike come from different tables or passages of the source.

How the values were obtained:
[1] = target: EGFP-IKZF (UniProt P42212+Q8C7D2, F64L/H231L/INS1V/S65T); assay type: cell-based, mouse; conditions: stable
[2] = target: EGFP-ZFP91 (UniProt P42212+Q8C7D2, F64L/H231L/INS1V/S65T); assay type: cell-based, mouse; conditions: for Bottom, EGFP-ZFP91 / LogDC50, EGFP-ZFP91: stable
[3] = CrbnI391V/I391V mESCs, Figure 5E

Structure (SMILES) | Bottom, EGFP-IKZF ([1]; B6J-S1 mESCs, Figure 5B) | LogDC50, EGFP-IKZF ([1]; B6J-S1 mESCs, Figure 5B) [μM] | Bottom, EGFP-IKZF [1, 3] | LogDC50, EGFP-IKZF [1, 3] [μM] | Bottom, EGFP-ZFP91 ([2]; B6J-S1 mESCs, Figure 5B) | LogDC50, EGFP-ZFP91 ([2]; B6J-S1 mESCs, Figure 5B) [μM] | degradation of EGFP-ZFP91 ([2]; CrbnI391V/I391V mESCs) | Bottom, EGFP-ZFP91 [2, 3] | LogDC50, EGFP-ZFP91 [2, 3] [μM]
O=C1CC[C@H](N2Cc3c(OCc4ccc(CN5CCOCC5)cc4)cccc3C2=O)C(=O)N1 [IBR, iberdomide] | 1.103 | -1.536 | 0.2424 | -3.194 | 1.006 | -1.679 | efficiently degraded | 0.1665 | -3.079
Nc1cccc2c1C(=O)N(C1CCC(=O)NC1=O)C2=O (stereo not shown) [POM, pomalidomide] |  |  | 0.1316 | -2.292 |  |  |  | 0.1492 | -2.052
